Laboratory results: the NIST ThermoML archive (doi:10.1021/acs.jced.9b00540)

Assays:
[1] = xn = mol fraction of the nth substance listed; conditions: Liquid, x2 = 0
[2] = Liquid, Falling or rolling sphere viscometry

CC(C)OC(C)C [diisopropyl ether] + CCOC(F)(C(F)(F)C(F)(F)C(F)(F)F)C(F)(C(F)(F)F)C(F)(F)F
viscosity [mPa·s], [1]
Conditions | 293.15 K | 313.15 K | 333.15 K | 353.15 K
100 kPa, Capillary tube (Ostwald / Ubbelohde) method | 0.33 | 0.27 | 0.225 | –
20000 kPa, Falling or rolling sphere viscometry | 0.396 | 0.332 | 0.282 | 0.258
40000 kPa, Falling or rolling sphere viscometry | 0.466 | 0.392 | 0.342 | 0.308
60000 kPa, Falling or rolling sphere viscometry | 0.542 | 0.454 | 0.402 | 0.358
80000 kPa, Falling or rolling sphere viscometry | 0.625 | 0.52 | 0.46 | 0.408
100000 kPa, Falling or rolling sphere viscometry | 0.715 | 0.588 | 0.517 | 0.457

CC(C)OC(C)C [diisopropyl ether]
viscosity [mPa·s], [2]
Conditions | 100 kPa | 20000 kPa | 40000 kPa | 60000 kPa | 80000 kPa | 100000 kPa
293.15 K | 0.33 | 0.396 | 0.466 | 0.542 | 0.625 | 0.715
313.15 K | 0.27 | 0.332 | 0.392 | 0.454 | 0.52 | 0.588
333.15 K | 0.225 | 0.282 | 0.342 | 0.402 | 0.46 | 0.517
353.15 K | – | 0.258 | 0.308 | 0.358 | 0.408 | 0.457

CCOC(F)(C(F)(F)C(F)(F)C(F)(F)F)C(F)(C(F)(F)F)C(F)(F)F (stereo not given) [2-trifluoromethyl-3-ethoxydodecafluorohexane]
viscosity [mPa·s], [2]
Conditions | 100 kPa | 20000 kPa | 40000 kPa | 60000 kPa | 80000 kPa | 100000 kPa
293.15 K | 1.369 | 1.894 | 2.645 | 3.622 | 4.894 | 6.553
313.15 K | 0.983 | 1.356 | 1.869 | 2.51 | 3.31 | 4.307
333.15 K | 0.739 | 1.032 | 1.41 | 1.87 | 2.427 | 3.105
353.15 K | 0.576 | 0.799 | 1.084 | 1.418 | 1.808 | 2.265
